# According to patent publication US8449898B2 (priority 2007, dated 2013):
# Like-named read-outs stand apart in the source and are kept apart here.
# Legend:
# [1] = system: Phytophthora infestans (the causal agent of tomato late blight); experiment: whole plant or invertebrate; format: in vivo; settings: for TLB Obsd (observed effect, tomato late blight): component (b) alone
# [2] = system: Pseudoperonospora cubensis (the causal agent of cucumber downy mildew); experiment: Test B: cucumber downy mildew, preventive spray on cucumber seedlings; format: in vivo
# [3] = Phytophthora infestans, read-out: TLB Obsd, Table E, component (b) alone at 0.016 ppm
# [4] = Phytophthora infestans, read-out: TLB Obsd, Table E, component (b) alone at 0.08 ppm
# [5] = Phytophthora infestans, read-out: TLB Obsd, Table E, component (b) alone at 0.4 ppm
# [6] = Phytophthora infestans, read-out: TLB Obsd, Table E, component (b) alone at 2 ppm
# [7] = Phytophthora infestans, read-out: TLB Obsd, Table E, component (b) alone at 10 ppm
# [8] = Pseudoperonospora cubensis, Table F, component (b) alone at 0.016 ppm, read-out: CDM Obsd
# [9] = Pseudoperonospora cubensis, Table F, component (b) alone at 0.08 ppm, read-out: CDM Obsd
# [10] = Pseudoperonospora cubensis, Table F, component (b) alone at 0.4 ppm, read-out: CDM Obsd
# [11] = Pseudoperonospora cubensis, Table F, component (b) alone at 2 ppm, read-out: CDM Obsd
# [12] = Pseudoperonospora cubensis, Table F, component (b) alone at 10 ppm, read-out: CDM Obsd
# [13] = Table D, component (b) alone at 10 ppm
# [14] = Table D, component (b) alone at 40 ppm
# [15] = Table D, component (b) alone at 200 ppm
# [16] = Table D, component (b) alone at 1000 ppm
# [17] = Table D, component (b) alone at 2000 ppm
compound,measurement,setting,value
Cc1cc(C(F)(F)F)nn1CC(=O)N1CCC(c2nc(C3=NOC4c5ccccc5CCC34)cs2)CC1 (stereo not drawn),melting point,,162 to 165 °C
Cc1cc(C(F)(F)F)nn1CC(=O)N1CCC(c2nc(C3=NOC(C)(c4ccccc4)C3)cs2)CC1 (stereo not drawn),melting point,,97 to 100 °C
CCc1cc(C(F)(F)F)nn1CC(=O)N1CCC(c2nc(C3=NOC(c4ccccc4)C3)cs2)CC1 (stereo not drawn),melting point,,128 to 133 °C
COc1ccc(C2CC(c3csc(C4CCN(C(=O)Cn5nc(C(F)(F)F)cc5C)CC4)n3)=NO2)cc1 (stereo not drawn),melting point,,119 to 124 °C
N#Cc1c(Cl)c(Cl)c(Cl)c(C#N)c1Cl [chlorothalonil],pest or weed control at 0.08 ppm,"[1]; Phytophthora infestans, read-out: TLB Obsd (observed effect, tomato late blight), component (b) alone, 0.08 ppm",14%
same,pest or weed control at 0.4 ppm,"[1]; Phytophthora infestans, read-out: TLB Obsd (observed effect, tomato late blight), component (b) alone, 0.4 ppm",14%
same,pest or weed control at 2 ppm,"[1]; Phytophthora infestans, read-out: TLB Obsd (observed effect, tomato late blight), component (b) alone, 2 ppm",21%
same,pest or weed control at 10 ppm,"[1]; Phytophthora infestans, read-out: TLB Obsd (observed effect, tomato late blight), component (b) alone, 10 ppm",100%
same,pest or weed control at 40 ppm,"[1]; Phytophthora infestans, read-out: TLB Obsd (observed effect, tomato late blight), component (b) alone, 40 ppm",100%
same,pest or weed control at 0.016 ppm,[1]; [3],31%
same,pest or weed control at 0.08 ppm,[1]; [4],0%
same,pest or weed control at 0.4 ppm,[1]; [5],73%
same,pest or weed control at 2 ppm,[1]; [6],100%
same,pest or weed control at 10 ppm,[1]; [7],100%
same,pest or weed control at 0.016 ppm,[2]; [8],47%
same,pest or weed control at 0.08 ppm,[2]; [9],33%
same,pest or weed control at 0.4 ppm,[2]; [10],47%
same,pest or weed control at 2 ppm,[2]; [11],99%
same,pest or weed control at 10 ppm,[2]; [12],100%
same,pest or weed control at 0.08 ppm,"[2]; Pseudoperonospora cubensis, component (b) alone, 0.08 ppm, read-out: CDM Obsd (observed effect, cucumber downy mildew)",0%
same,pest or weed control at 0.4 ppm,"[2]; Pseudoperonospora cubensis, component (b) alone, 0.4 ppm, read-out: CDM Obsd (observed effect, cucumber downy mildew)",0%
same,pest or weed control at 2 ppm,"[2]; Pseudoperonospora cubensis, component (b) alone, 2 ppm, read-out: CDM Obsd (observed effect, cucumber downy mildew)",0%
same,pest or weed control at 10 ppm,"[2]; Pseudoperonospora cubensis, component (b) alone, 10 ppm, read-out: CDM Obsd (observed effect, cucumber downy mildew)",70%
same,pest or weed control at 40 ppm,"[2]; Pseudoperonospora cubensis, component (b) alone, 40 ppm, read-out: CDM Obsd (observed effect, cucumber downy mildew)",71%
O=C(Cn1nc(C(F)(F)F)cc1C(F)(F)F)N1CCC(c2nc(C3=NOC(c4ccccc4)C3)cs2)CC1 (stereo not drawn),melting point,,130 to 133 °C
CCO[PH](=O)O [fosetyl-aluminum],TLB Obsd,[1]; [13],0%
same,TLB Obsd,[1]; [14],20%
same,TLB Obsd,[1]; [15],65%
same,TLB Obsd,[1]; [16],97%
same,TLB Obsd,[1]; [17],100%
same,"TLB Obsd (observed effect, tomato late blight)",[1]; 10 ppm,0
same,"TLB Obsd (observed effect, tomato late blight)",[1]; 40 ppm,0
same,"TLB Obsd (observed effect, tomato late blight)",[1]; 200 ppm,50
same,"TLB Obsd (observed effect, tomato late blight)",[1]; 1000 ppm,99
same,"TLB Obsd (observed effect, tomato late blight)",[1]; 2000 ppm,100
same,CDM Obsd,[2]; [13],47%
same,CDM Obsd,[2]; [14],47%
same,CDM Obsd,[2]; [15],47%
same,CDM Obsd,[2]; [16],98%
same,CDM Obsd,[2]; [17],100%
same,CDM Obsd,[2]; component (b) alone 10 ppm (Compound 1 0 ppm),47%
same,CDM Obsd,[2]; component (b) alone 40 ppm (Compound 1 0 ppm),47%
same,CDM Obsd,[2]; component (b) alone 200 ppm (Compound 1 0 ppm),63%
same,CDM Obsd,[2]; component (b) alone 1000 ppm (Compound 1 0 ppm),98%
same,CDM Obsd,[2]; component (b) alone 2000 ppm (Compound 1 0 ppm),100%
same,"CDM Obsd (observed effect, cucumber downy mildew)","[2]; component (b) alone, 10 ppm",0
same,"CDM Obsd (observed effect, cucumber downy mildew)","[2]; component (b) alone, 40 ppm",0
same,"CDM Obsd (observed effect, cucumber downy mildew)","[2]; component (b) alone, 200 ppm",0
same,"CDM Obsd (observed effect, cucumber downy mildew)","[2]; component (b) alone, 1000 ppm",68
same,"CDM Obsd (observed effect, cucumber downy mildew)","[2]; component (b) alone, 2000 ppm",73
C#CCOc1ccc(CCNC(=O)C(OCC#C)c2ccc(Cl)cc2)cc1OC (stereo not drawn) [mandipropamid],TLB Obsd,"[1]; Table E, component (b) alone at 0.016 ppm",26%
same,TLB Obsd,"[1]; Table E, component (b) alone at 0.08 ppm",33%
same,TLB Obsd,"[1]; Table E, component (b) alone at 0.4 ppm",88%
same,TLB Obsd,"[1]; Table E, component (b) alone at 2 ppm",100%
same,TLB Obsd,"[1]; Table E, component (b) alone at 10 ppm",100%
same,"TLB Obsd (observed effect, tomato late blight)",[1]; 0.08 ppm,80
same,"TLB Obsd (observed effect, tomato late blight)",[1]; 0.4 ppm,97
same,"TLB Obsd (observed effect, tomato late blight)",[1]; 2 ppm,99
same,"TLB Obsd (observed effect, tomato late blight)",[1]; 10 ppm,100
same,"TLB Obsd (observed effect, tomato late blight)",[1]; 40 ppm,100
same,CDM Obsd,"[2]; Table F, component (b) alone at 0.016 ppm",33%
same,CDM Obsd,"[2]; Table F, component (b) alone at 0.08 ppm",97%
same,CDM Obsd,"[2]; Table F, component (b) alone at 0.4 ppm",100%
same,CDM Obsd,"[2]; Table F, component (b) alone at 2 ppm",100%
same,CDM Obsd,"[2]; Table F, component (b) alone at 10 ppm",100%
same,"CDM Obsd (observed effect, cucumber downy mildew)","[2]; component (b) alone, 0.08 ppm",86
same,"CDM Obsd (observed effect, cucumber downy mildew)","[2]; component (b) alone, 0.4 ppm",100
same,"CDM Obsd (observed effect, cucumber downy mildew)","[2]; component (b) alone, 2 ppm",100
same,"CDM Obsd (observed effect, cucumber downy mildew)","[2]; component (b) alone, 10 ppm",100
same,"CDM Obsd (observed effect, cucumber downy mildew)","[2]; component (b) alone, 40 ppm",100
Fc1ccc(Oc2ccnc3cc(Cl)cc(Cl)c23)cc1 [quinoxyfen],pest or weed control at 0.016 ppm,[1]; [3],9%
same,pest or weed control at 0.08 ppm,[1]; [4],24%
same,pest or weed control at 0.4 ppm,[1]; [5],26%
same,pest or weed control at 2 ppm,[1]; [6],9%
same,pest or weed control at 10 ppm,[1]; [7],9%
same,pest or weed control at 0.4 ppm,"[1]; Phytophthora infestans, read-out: TLB Obsd, component (b) alone, 0.4 ppm",0%
same,pest or weed control at 2 ppm,"[1]; Phytophthora infestans, read-out: TLB Obsd, component (b) alone, 2 ppm",7%
same,pest or weed control at 10 ppm,"[1]; Phytophthora infestans, read-out: TLB Obsd, component (b) alone, 10 ppm",7%
same,pest or weed control at 40 ppm,"[1]; Phytophthora infestans, read-out: TLB Obsd, component (b) alone, 40 ppm",0%
same,pest or weed control at 200 ppm,"[1]; Phytophthora infestans, read-out: TLB Obsd, component (b) alone, 200 ppm",0%
same,pest or weed control at 0.016 ppm,[2]; [8],26%
same,pest or weed control at 0.08 ppm,[2]; [9],26%
same,pest or weed control at 0.4 ppm,[2]; [10],26%
same,pest or weed control at 2 ppm,[2]; [11],26%
same,pest or weed control at 10 ppm,[2]; [12],26%
same,pest or weed control at 0.4 ppm,"[2]; Pseudoperonospora cubensis, component (b) alone, 0.4 ppm, read-out: CDM Obsd",0%
same,pest or weed control at 2 ppm,"[2]; Pseudoperonospora cubensis, component (b) alone, 2 ppm, read-out: CDM Obsd",0%
same,pest or weed control at 10 ppm,"[2]; Pseudoperonospora cubensis, component (b) alone, 10 ppm, read-out: CDM Obsd",0%
same,pest or weed control at 40 ppm,"[2]; Pseudoperonospora cubensis, component (b) alone, 40 ppm, read-out: CDM Obsd",0%
same,pest or weed control at 200 ppm,"[2]; Pseudoperonospora cubensis, component (b) alone, 200 ppm, read-out: CDM Obsd",0%
